Experimental data published in PubChem BioAssay (NCI).
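GI50 marks 50% less growth. TGI denotes the concentration required for complete inhibition of growth.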

What was measured:
Assay in all cases: NCI-60 cell line screen, 384-well format
[1] = system: NCI-H322M lung
[2] = system: 786-0 renal
[3] = system: SN12C renal
[4] = system: MCF7 breast
[5] = system: BT-549 breast
[6] = system: HCT-15 colon
[7] = system: UO-31 renal
[8] = system: SK-OV-3 ovarian
[9] = system: M14 melanoma
[10] = system: RXF 393 renal
[11] = system: NCI-H226 lung
[12] = system: HOP-62 NSCLC
[13] = system: SR leukemia
[14] = system: SK-MEL-5 melanoma
[15] = system: HT29 colon
[16] = system: KM12 colon
[17] = system: RPMI-8226 leukemia
[18] = system: NCI-H23 lung
[19] = system: HCC-2998 colon
[20] = system: SF-539 CNS
[21] = system: MOLT-4 leukemia
[22] = system: OVCAR-3 ovarian
[23] = system: T-47D breast
[24] = system: COLO 205 colon
[25] = system: NCI-H460 NSCLC
[26] = system: SK-MEL-28 melanoma
[27] = system: ACHN renal
[28] = system: DU-145 prostate
[29] = system: MALME-3M melanoma
[30] = system: SNB-19 CNS
[31] = system: A549 NSCLC
[32] = system: EKVX NSCLC
[33] = system: NCI/ADR-RES ovarian
[34] = system: CAKI-1 renal
[35] = system: HOP-92 NSCLC
[36] = system: HL-60(TB) leukemia
[37] = system: TK-10 renal
[38] = system: OVCAR-5 ovarian
[39] = system: IGROV1 ovarian
[40] = system: PC-3 prostate
[41] = system: LOX IMVI melanoma
[42] = system: SF-295 CNS
[43] = system: MDA-MB-435 melanoma
[44] = system: MDA-MB-468 breast
[45] = system: SNB-75 CNS
[46] = system: HCT-116 colon
[47] = system: UACC-257 melanoma
[48] = system: OVCAR-4 ovarian
[49] = system: U251 glioblastoma
[50] = system: HS 578T breast
[51] = system: UACC-62 melanoma
[52] = system: A498 renal
[53] = system: SF-268 CNS
[54] = system: NCI-H522 lung
[55] = system: MDA-MB-231 breast
[56] = system: OVCAR-8 ovarian
[57] = system: SW-620 colon

For CO[C@H]1C(=O)[C@]2(C)[C@@H](OC)C[C@H]3OC[C@@]3(OC(C)=O)[C@H]2[C@H](OC(=O)c2ccccc2)[C@]2(O)C[C@H](OC(=O)[C@H](O)[C@@H](NC(=O)OC(C)(C)C)c3ccccc3)C(C)=C1C2(C)C, the TGI [1] was greater than 100 µM, the GI50 [2] was less than 0.01 µM and the TGI [2] was greater than 78.8 µM. It also gave a GI50 [3] of less than 0.01 µM, a TGI [3] greater than 100 µM and a GI50 [4] of less than 0.01 µM. For the same compound, the TGI [4] was greater than 61.5 µM, the GI50 [5] was less than 0.01 µM and the TGI [5] was less than 0.01 µM. It also gave a GI50 [6] of less than 0.01 µM, a TGI [6] greater than 100 µM and a GI50 [7] of less than 0.0128 µM. It also gave a TGI [7] greater than 100 µM, a GI50 [8] of less than 0.01 µM and a TGI [8] greater than 100 µM. It also gave a GI50 [9] of less than 0.01 µM, a TGI [9] greater than 100 µM and a GI50 [10] of less than 0.01 µM. It also gave a TGI [10] of less than 0.01 µM, a GI50 [11] of less than 0.01 µM and a TGI [11] of 18.5 µM. The GI50 [12] was less than 0.01 µM, the TGI [12] was greater than 100 µM and the GI50 [13] was less than 0.01 µM. It also gave a TGI [13] of less than 0.01 µM, a GI50 [14] of less than 0.01 µM and a TGI [14] of less than 0.01 µM. The GI50 [15] was less than 0.01 µM, the TGI [15] was less than 0.01 µM and the GI50 [16] was less than 0.01 µM. For the same compound, the TGI [16] was greater than 100 µM, the GI50 [17] was less than 0.01 µM and the TGI [17] was less than 0.01 µM. The GI50 [18] was less than 0.01 µM, the TGI [18] was greater than 100 µM and the GI50 [19] was less than 0.01 µM. For the same compound, the TGI [19] was less than 0.01 µM, the GI50 [20] was less than 0.01 µM and the GI50 [21] was less than 0.01 µM. The TGI [21] was less than 0.01 µM, the GI50 [22] was less than 0.01 µM and the GI50 [23] was less than 0.01 µM. The TGI [23] was 89 µM, the GI50 [24] was less than 0.01 µM and the TGI [24] was less than 0.01 µM. For the same compound, the GI50 [25] was less than 0.01 µM, the TGI [25] was less than 0.01 µM and the GI50 [26] was greater than 100 µM. It also gave a TGI [26] greater than 100 µM, a TGI [27] greater than 100 µM and a GI50 [28] of less than 0.01 µM. The TGI [28] was less than 0.01 µM, the TGI [29] was greater than 49.2 µM and the GI50 [30] was less than 0.01 µM. It also gave a TGI [30] greater than 100 µM, a GI50 [31] of less than 0.01 µM and a TGI [31] greater than 55.1 µM. For the same compound, the GI50 [32] was less than 0.01 µM, the TGI [32] was 39.8 µM and the GI50 [33] was 0.0189 µM. It also gave a TGI [33] of 0.0548 µM, a GI50 [34] of less than 0.0131 µM and a TGI [34] greater than 69 µM. It also gave a GI50 [35] of 22.2 µM, a TGI [35] greater than 100 µM and a GI50 [36] of less than 0.01 µM. For the same compound, the TGI [36] was less than 0.01 µM, the GI50 [37] was less than 0.01 µM and the TGI [37] was greater than 100 µM. For the same compound, the GI50 [38] was less than 0.01 µM, the TGI [38] was greater than 100 µM and the GI50 [39] was less than 0.01 µM. The TGI [39] was greater than 100 µM, the GI50 [40] was less than 0.01 µM and the TGI [40] was greater than 80.5 µM. It also gave a GI50 [41] of less than 0.0407 µM, a TGI [41] of 22.6 µM and a GI50 [42] of less than 0.01 µM. For the same compound, the GI50 [43] was less than 0.01 µM, the TGI [43] was less than 0.01 µM and the GI50 [44] was less than 0.01 µM. For the same compound, the TGI [44] was less than 0.01 µM, the GI50 [45] was less than 0.01 µM and the GI50 [46] was less than 0.01 µM. The TGI [46] was greater than 100 µM, the GI50 [47] was 32.7 µM and the TGI [47] was greater than 100 µM. It also gave a GI50 [48] of less than 0.01 µM, a TGI [48] of 31.3 µM and a GI50 [49] of less than 0.01 µM. It also gave a TGI [49] of 21.2 µM, a GI50 [50] of less than 0.01 µM and a TGI [50] of less than 0.01 µM. The GI50 [51] was less than 0.01 µM, the TGI [51] was greater than 49.7 µM and the GI50 [52] was less than 0.01 µM. For the same compound, the TGI [52] was 44.2 µM, the TGI [53] was greater than 62.6 µM and the GI50 [54] was less than 0.01 µM. It also gave a TGI [54] of less than 0.01 µM.
With Cc1ccc(C(=O)Nc2ccc(Oc3cc4cnn(C)c4cc3-c3cn[nH]c3)c(F)c2)c(=O)n1-c1ccc(F)cc1 the GI50 [1] was greater than 100 µM, the TGI [1] was greater than 100 µM and the GI50 [2] was greater than 100 µM. For the same compound, the TGI [2] was greater than 100 µM, the GI50 [4] was 5.56 µM and the TGI [4] was greater than 100 µM. The GI50 [7] was greater than 100 µM, the TGI [7] was greater than 100 µM and the GI50 [9] was 2.56 µM. For the same compound, the TGI [9] was greater than 100 µM, the GI50 [10] was 2.57 µM and the TGI [10] was greater than 100 µM. For the same compound, the GI50 [12] was 3.81 µM, the TGI [12] was greater than 100 µM and the GI50 [15] was 3.03 µM. The TGI [15] was greater than 100 µM, the GI50 [16] was 0.0165 µM and the TGI [16] was greater than 100 µM. The GI50 [18] was 10.4 µM, the TGI [18] was greater than 100 µM and the GI50 [19] was greater than 100 µM. For the same compound, the TGI [19] was greater than 100 µM, the GI50 [21] was 1.08 µM and the TGI [21] was 19.8 µM. The GI50 [24] was 4.91 µM, the TGI [24] was greater than 100 µM and the GI50 [26] was 7.28 µM. For the same compound, the TGI [26] was greater than 100 µM, the GI50 [27] was 6.44 µM and the TGI [27] was greater than 100 µM. It also gave a GI50 [29] of 5.29 µM, a TGI [29] greater than 100 µM and a GI50 [55] greater than 100 µM. The TGI [55] was greater than 100 µM, the GI50 [56] was greater than 100 µM and the TGI [56] was greater than 100 µM. It also gave a GI50 [33] greater than 100 µM, a TGI [33] greater than 100 µM and a GI50 [34] of 5.86 µM. The TGI [34] was greater than 100 µM, the GI50 [35] was greater than 100 µM and the TGI [35] was greater than 100 µM. It also gave a GI50 [37] greater than 100 µM, a TGI [37] greater than 100 µM and a GI50 [38] greater than 100 µM. It also gave a TGI [38] greater than 100 µM, a GI50 [39] of 5.27 µM and a TGI [39] greater than 100 µM. It also gave a GI50 [41] of 4.05 µM, a TGI [41] greater than 100 µM and a GI50 [42] of 2.37 µM. For the same compound, the TGI [42] was greater than 100 µM, the GI50 [45] was 6.22 µM and the TGI [45] was greater than 100 µM. For the same compound, the GI50 [48] was greater than 100 µM, the TGI [48] was greater than 100 µM and the GI50 [57] was greater than 100 µM. It also gave a TGI [57] greater than 100 µM, a GI50 [50] of 10.6 µM and a TGI [50] greater than 100 µM. The GI50 [51] was 2.42 µM, the TGI [51] was greater than 100 µM and the GI50 [53] was 0.698 µM. For the same compound, the TGI [53] was 7.36 µM.
